The test system of one test is NCI-H929. Kind of test: Immunogenic cell death markers (ATP, HMGB1, CRT) after 48 hour treatment. It is filed as cell-based, human. The source says:
The process of immunogenic cell death can induce the production of danger molecules that lead to the activation of dendritic cells (see FIG. 1A—ICD is a special type of apoptosis often associated with the cellular release of ATP and HMGB1, and exposure of CRT at the cellular membrane. ICD induces an immune response through engagement of the antigen presentation process by dendritic cells (DCs)). […] Anti-BCMA-MMAF induced ATP release, HMGB1 release and CRT exposure only in NCI-H929, a BCMA positive MM cell line). To investigate the effect of NCI-H929 cell killing by BCMA ADC on the activation of dendritic cells, co-culture experiments were carried out with BCMA ADC treated NCI-H929 cells and immature dendritic cells (iDCs) differentiated from human monocytes in vitro with GM-CSF/IL-4 treatment. A number of dendritic cell maturation markers as well as IL-10 and IL-12p70, two major cytokines secreted by dendritic cells upon activation, were monitored in this process to assess the effect of BCMA ADC induced cell death on dendritic cell activation.

Another test relates to Dendritic cells. Kind of test: Co-culture of immature dendritic cells with BCMA ADC treated NCI-H929 cells, maturation markers by flow cytometry. It is filed as cell-based, human. The source says:
The process of immunogenic cell death can induce the production of danger molecules that lead to the activation of dendritic cells (see FIG. 1A-ICD is a special type of apoptosis often associated with the cellular release of ATP and HMGB1, and exposure of CRT at the cellular membrane. ICD induces an immune response through engagement of the antigen presentation process by dendritic cells (DCs)). […] Anti-BCMA-MMAF induced ATP release, HMGB1 release and CRT exposure only in NCI-H929, a BCMA positive MM cell line). To investigate the effect of NCI-H929 cell killing by BCMA ADC on the activation of dendritic cells, co-culture experiments were carried out with BCMA ADC treated NCI-H929 cells and immature dendritic cells (iDCs) differentiated from human monocytes in vitro with GM-CSF/IL-4 treatment. A number of dendritic cell maturation markers as well as IL-10 and IL-12p70, two major cytokines secreted by dendritic cells upon activation, were monitored in this process to assess the effect of BCMA ADC induced cell death on dendritic cell activation. Fresh, whole Human blood was obtained from three healthy donors from the Upper Providence Blood Donation Unit with syringes coated in liquid sodium heparin ([…] 10 IU/mL final concentration). Monocytes were isolated from fresh, whole human blood using the RosetteSep Monocyte Enrichment kit (Cat. #15068) and were assessed for expression of cell surface CD14 (BD Bioscience Cat. #562698) using flow cytometry. […] All cells were counted at the initiation of the co-culture and diluted with X-Vivo-15 media to a concentration of 7.5×10^5 cells/mL. […] Data for the secreted IL-10 and IL-12p70 from supernatants in the co-culture assays w analyzed in MSD Discovery Workbench v4.0.12. […] Marker expression was measured in (a) untreated (no BCMA ADC) Dendritic cells alone and (b-f) Dendritic cells that were co-cultured with (b) untreated (no BCMA ADC), (c) IgG Control (10 μg/mL), (d) 0.1, (e) 1 and (f) 10 μg/mL BCMA ADC treated (48 hours) NCI-H929 cells. […]
On the technique in general: Flow cytometry measures light scatter and fluorescence of single cells or particles in a stream.

Setting [1] is: three healthy donors, 24 hour co-culture, 0.1, 1, 10 μg/mL BCMA ADC.

In the case of GSK2857916, the HMGB1 release result in the test on NCI-H929 (cellular supernatant, ELISA, only in NCI-H929) was “induced”. In addition, the ATP release result in the test with NCI-H929 (cellular supernatant, luminescence, only in NCI-H929, a BCMA positive MM cell line) is on record as “induced”. In addition, the CRT exposure result with NCI-H929 (flow cytometry, only in NCI-H929) was “induced”. Besides, the “effect of killing of NCI-H929 cells on dendritic cells” value with Dendritic cells (24 hour co-culture 1:1 with NCI-H929 cells treated 48 hours) is recorded as “stimulatory effect on dendritic cells”. For the same substance, in the test with Dendritic cells (setting [1]), the “CD40 cell surface expression on CD11c+ Dendritic cells” value is given as “increased” and the “CD83 cell surface expression on HLA-DR+ Dendritic cells” value is “increased”.

The record behind these values is US20220096650A1 (Glaxosmithkline Intellectual Property Development Limited, priority 2019, published 2022).
